One assay has as its system PD-L1. Description: Cell-surface PD-L1 expression by flow cytometry. It is filed as cell-based. The settings on record: 12.5 μM Compound A, 1 μM FUdR; 24 hours. How it is done: Experimental Overview. Programmed death-ligand 1 (PD-L1) is a type 1 transmembrane protein that plays a major role in suppressing the innate and adaptive arms of the immune system. The PD-1/PD-L1 pathway represents an adaptive immune resistance mechanism exerted by tumor cells in response to endogenous immune anti-tumor activity and is a well-established therapeutic target in cancer therapy. Cancer cells were treated with vehicle control (DMSO), the fluoropyrimidine FUdR (also known as floxuridine) alone, Compound A alone, or the combination of Compound A and FUdR, and the expression level of the immune checkpoint protein PD-L1 was measured by both Western blotting and flow cytometry and compared to control. Cell lines assayed for total PD-L1 protein expression by Western blotting included, pancreatic cancer, PANC-1; non-small cell lung cancer, H460; colorectal cancer, HCT116; breast cancer, MCF-7; melanoma, MeWo. Two cell lines were advanced to analyze cell surface PD-L1 by flow cytometry, MCF-7 and PANC-1.
Cell Surface Flow Cytometry. Cells were seeded in 6-well plates and permitted to adhere overnight. Media was removed and replaced with media containing the indicated concentrations of Compound A, FUdR or a combination of both, positive control cells were treated with IFNγ. Cells were then incubated for 24 hours. At the conclusion of specified timepoints, cells were washed with PBS and removed from the plates using trypsin-EDTA. Cells were counted and 300,000 cells were washed in staining buffer and incubated in PD-L1 or IgG antibody on ice for 40 minutes. Cells were then washed in staining buffer twice and finally resuspended in 300 μL of staining buffer and transferred to BD Falcon™ round-bottom tube. Dot plot for FSC v SSC were used to gate cell population and doublets were excluded on FL-4 histogram height versus area/width. IgG isotype control stained sample was used to identify the positively stained population. Percentage positive population and median fluorescent intensity values were exported and analyzed in Microsoft Excel and GraphPad Prism 6. Statistical analysis consisted of one-way ANOVA with Tukey's multiple comparisons testing.
(Flow cytometry measures light scatter and fluorescence of single cells or particles in a stream.)

The next assay relates to HMGB1. Description: Extracellular release of HMGB1 into cell culture media by ELISA. The settings on record: 12.5 μM Compound A, 1 μM FUdR; 24 hours. In kind it is cell-based. An excerpt:
Experimental Overview. High mobility group box 1 (HMGB1) is a nuclear non-histone chromatin-binding protein. The release of HMGB1 by immune cells or severely damaged cancer cells functions as an immunostimulatory chemokine and is a well-known damage-associated molecular pattern (DAMP). The release of HMGB1 during cell death is characteristic of immunogenic cell death, a sub-class of cell death that results in the potent stimulation of the innate and subsequently the stimulation of adaptive immune responses. HMGB1 functions as a pro-inflammatory cytokine-like factor and can form hetero-complexes with other immune regulators. HMGB1 binds to TLRs, RAGE and CXCR4 on immune cells stimulating chemotaxis and the secretion of pro-inflammatory factors. HCT116 colon carcinoma and JU77 mesothelioma cells were treated with vehicle control (DMSO), 12.5 μM Compound A, 1 μM FUdR, or the combination of 12.5 μM Compound A and 1 μM FUdR for 24 hours and the release of HMGB1 into the extracellular culture media was measured by ELISA.
Cell Line Model Selection and Preparation. The HCT116 cancer cell line was purchased from ATCC. JU77 cell line was a kind gift from Dr Dan Longley, QUB. Cells were cultured and expanded in humidified incubators at 5% CO2 until sufficient cells were available.
Drug Preparation and Treatments. All drugs/compounds were prepared freshly in cell culture media from 50 mM frozen stocks prior to treatment. Cells were seeded in 6-well culture dishes and allowed to adhere overnight before treatment with Compound A, FUdR, or Compound A in combination with FUdR. Additional wells were treated with doxorubicin to act as a positive inducer of HMGB1. Twenty-four hours after treatment, the media was aspirated and centrifuged (2500 rpm, 5 min, at 4° C.) to remove any cellular debris. The supernatant was collected for immediate processing or stored at −80° C. for later assay.
Detection of HMGB1 Release. HMGB1 was quantified using the HMGB1 ELISA kit (ST51011, IBL International). Enzyme conjugate (HMGB1 conjugated to peroxidase) and standard were reconstituted in 12 ml enzyme conjugate diluent, and 1 ml diluent buffer respectively and aliquots frozen at −80° C. until required. All reagents and samples were brought to room temperature immediately prior to use. A standard curve was prepared for the high sensitive detection range (0.313-10 ng/ml). 50 μl diluent buffer was pipetted into each well of the microtiter plate. 50 μl of standard, sample, positive control or negative control (diluent buffer) was pipetted, in duplicate, into respective wells as determined by the plate set up. The plate was covered with adhesive foil and incubated at 37° C. for 20 to 24 hours on an orbital shaker (450 rpm). Following the incubation period the incubation solution was discarded and the plate washed (5×300 μl per well). Excess wash buffer was removed by inversion on to a paper towel. 100 μl enzyme conjugate was added to each well, the plate covered with adhesive foil and incubated at 25° C. for 2 hours on an orbital shaker (450 rpm). Following the incubation the solution was discarded and the plate washed as before. Fresh color solution was prepared immediately prior to use and 100 μl added to each well using a multichannel pipette. The plate was then incubated for 30 minutes at room temperature. The color reaction was stopped by pipetting 100 μl of stop reagent to each well using a multichannel pipette. The plate was shaken gently to mix and the backs of the wells were cleaned using a lint-free tissue. The concentration of HMGB1 was determined on a CLARIOstar microplate reader by measuring the absorbance at 450 nm using a reference reading at 640 nm. Data was exported to Microsoft Excel for processing and statistical analysis consisting of one-way ANOVA with Tukey's Multiple Comparisons Test was performed in GraphPad Prism 6.
On the technique in general: ELISA stands for enzyme-linked immunosorbent assay.

Two compounds from US20230263773A1, “COMBINATION THERAPY WITH DEOXYURIDINE TRIPHOSPHATASE INHIBITORS” (CV6 Therapeutics (NI) Limited, priority 2020, published 2023) can be followed below.

As to `C[C@@H](NS(=O)(=O)CCCCCN1CC(=O)NC1=O)c1ccc(F)c(OCC2CC2)c1` [Compound A], in the assay on PD-L1, the “increase in cell-surface PD-L1 expression compared to control, MCF-7 cells” value is reported as “No significant difference” and the “increase in cell-surface PD-L1 expression compared to control, PANC-1 cells” value is reported as “the same as vehicle control cells”. Moreover, in the assay with HMGB1, the “increase in concentration of HMGB1 in cell culture media compared to control, HCT116 cells” value is “no significant difference” and the “increase in concentration of HMGB1 in cell culture media compared to control, JU77 cells” value is listed as “no significant difference”.

For the compound `O=c1[nH]c(=O)n([C@H]2C[C@H](O)[C@@H](CO)O2)cc1F` [FUdR], in the assay on PD-L1, the “increase in cell-surface PD-L1 expression compared to control, MCF-7 cells” value was determined as 4.7 fold and the “increase in cell-surface PD-L1 expression compared to control, PANC-1 cells” value is about 10 fold. In addition, in the assay on HMGB1, the “increase in concentration of HMGB1 in cell culture media compared to control, HCT116 cells” value is “no significant difference” and the “increase in concentration of HMGB1 in cell culture media compared to control, JU77 cells” value was “no significant difference”.
